Reference: patent US20230346995A1, “USE OF ELECTRIC CURRENT OR FIELD TO MANAGE RISK OF INFECTION BY ANTIMICROBIAL-RESISTANT MICROORGANISMS” (THE TRUSTEES OF INDIANA UNIVERSITY, priority 2020, published 2023)

What was measured:
Format in all cases: cell-based
[1] = system: ketoconazole-resistant Candida albicans ATCC 64124; assay: Semi-quantitative analysis of cell wall carbohydrates chitin, beta glucan, mannan; details: 24 h treatment
Method: Semi-quantitative analysis was performed for cell wall carbohydrates chitin, beta glucan, and mannan. After 24 h treatment, with dressings alone or in combination with ketoconazole, 1 ml yeast cells were washed once with 1 ml 1X PBS followed by chitin staining with Calcofluor White (Sigma Aldrich) (25 μg/ml) for 10 min; beta glucan staining with Aniline Blue (Anaspec) (0.05%) for 15 min; mannan staining with Concanavalin A-Texas Red conjugate (Life Technologies) (25 μg/ml) for 40 min. All stainings were performed under dark condition. Post-staining, cells were washed once with 1 ml 1X PBS and observed under 63X magnification. Microscopic images were used for measuring fluorescence intensities using ZEN blue software.

[2] = system: ketoconazole-resistant Candida albicans ATCC 64124; assay: In vitro yeast to hyphae transition assay; details: after 2 h incubation in hyphae-inducing medium
Method: Transition of C. albicans from yeast form to hyphal form was studied with hyphae inducing conditions (YPD broth with 10% fetal bovine serum and incubation at 37° C., static condition). Cells were cultured in 5 ml hyphae-inducing medium, with or without dressings or ketoconazole. An aliquot of cells (1 ml) was taken from all treatment groups at 6 h and 24 h. Hyphal induction and elongation was monitored microscopically (63X) and imaged at 6 h and 24 h. For hyphal length measurements, aliquots were taken after 2 h in hyphae-inducing medium and images were captured at 20X magnification. Hyphal lengths were measured from these images using Accuview software (50 measurements per experimental group, six biological replicates).

[3] = system: ketoconazole-resistant Candida albicans ATCC 64124; assay: Ultrastructure analysis (TEM) for cell wall thickness; details: after 24 h; compared to control cells
Method: Ultrastructure analysis was performed as follows. After 24 h of respective treatments in YPD broth, C. albicans cells were initially fixed overnight with 500 μl 3% glutaraldehyde/0.1 M phosphate buffer; the fixative was changed to same fixative with 0.15% tannic acid for one hour. After three rinses in buffer, the specimens were post-fixed with 1% osmium tetroxide/0.1 M phosphate buffer for one hour and then rinsed multiple times with distilled water, before en bloc staining with 1% uranyl acetate in distilled water for one hour. After multiple rinses in distilled water, standard dehydration followed through a range of 70-100% ethanol, then infiltration with acetone, to 50:50 acetone and embedding resin for 48 hours. Specimens were then embedded with 100% resin (Embed 812, Electron Microscopy Sciences, Hatfield, PA) and polymerized overnight. Sections were cut, 80-85 nm and placed on copper mesh grids and viewed on Transmission Electron Microscope (TEM) (ThermoFisher, Tecnai Spirit, Hillsoboro OR) and images taken with CCD camera (Advanced Microscopy Techniques Danvers MA). Analysis of cell wall thickness was done with TEM images using ImageJ software.

[4] = system: ketoconazole-resistant Candida albicans ATCC 64124; assay: Cell membrane potential changes, DiBAC4(3)/PI staining, flow cytometry; details: in words; flow cytometry and microscopy
Method: Cell membrane potential changes were assessed by DiBAC4(3) staining. Candida albicans cells were cultured in liquid media (YPD broth), with or without dressings or ketoconazole. At respective time intervals, an aliquot of cells (1×10^8) was taken and washed with 1 ml 1X PBS followed by treatment with either 200 μl 10 μM DiBAC4(3) [Bis-(1,3-dibutylbarbituric acid) trimethine oxonol] (Anaspec) [for DiBAC4(3) single stained controls] or 10 μM propidium iodide (Sigma Aldrich) [for PI single stained controls] or a combination of both stains. Heat-killed cells (1×10^8; treated at 100° C. for 30 min) and cells treated with Amphotericin B (3 μg/ml) (Sigma
Aldrich) for 6 h were used as controls for dual stain positive and DiBAC4(3) only positive cells, respectively.
Post staining, cells were washed with 1XPBS followed by flow cytometry (with FL1-FITC for DiBAC4(3) and FL2-PE filter for PI) (10,000 events per sample) to assess dual stain positive cells in control and test samples. For flow cytometry, control and treated cells stained only with single fluorescent stains were also run separately to check individual staining patterns. Flow cytometry data were analyzed using FlowJo software and graphically represented. Scatter plots with ratio of fluorescence intensities through FL1-FITC filter and FL2-PE filter were plotted to understand cell membrane depolarization mechanism in treated cells. […]

[5] = system: ketoconazole-resistant Candida albicans ATCC 64124; assay: Efflux pump activity by Nile Red accumulation assay; details: within 30 min to 3 h of treatment; flow cytometry
Method: Three technical replicates were assayed for each experimental group; six biological replicates.

[6] = system: ketoconazole-resistant Candida albicans ATCC 64124; assay: Agar lawn assay with embedded dressings; details: in words
Method: (§1) An agar lawn assay assessed fungicidal activity. Dressings (2′×2′) were moistened with sterile YPD broth and placed in empty Petri plates with the conducting side of the dressing facing up. One milliliter of log phase C. albicans cells (1×10^8 cells) was thoroughly mixed in sterile molten YPD agar (9 ml) and poured evenly in plates with dressings. […] Plate images were captured and the area of growth inhibition in these plates was calculated with ImageJ software. Metabolic state was assessed by FUN1 staining. […] Post treatments with electroceutical dressings, an aliquot of yeast cells (1×10^8) was taken and washed with 1 ml of 1X PBS followed by treatment with 100 μl FUN®1 (1:1000; freshly diluted in 1X PBS) for 40 min in dark condition. Cells were then washed once with 1 ml of 1X PBS followed by counter staining with 100 μl Calcofluor White (25 μg/ml) for 10 min in dark conditions. Post counter staining cells were again washed with 1 ml 1X PBS, an aliquot of cells was trapped between a cover glass and glass slide and observed at 63X. Images captured at this magnification were analyzed using ZEN blue software to calculate the ratio of red and green fluorescence intensities for two regions of interest (ROI) per image (10 ROIs per group per technical replicate). Three technical replicates were assayed for each experimental group; six biological replicates.

[7] = system: ketoconazole-resistant Candida albicans ATCC 64124; assay: Planktonic growth, absorbance at 600 nm; details: YPD broth; ketoconazole 100 μg/ml; versus control
Method: ATCC strain 64124 was maintained at 4° C. on yeast extract peptone dextrose (YPD) (BD™ Difco™) agar plates. Planktonic yeast cultures (seed inoculums) were initiated in 5 ml of YPD broth (BD™ Difco™) from a single colony of the yeast strain. Cells were incubated at 28° C., under shaker conditions (200 rpm) for 24 h, followed by initiation of master inoculums for respective experiments in 5 ml YPD broth (OD600nm ˜0.15). Yeast cells were incubated at 27° C. for all assays, except for hyphal transition experiments. For all assays, ketoconazole (Sigma Aldrich) was used at a final concentration of 100 μg/ml (dissolved in 100% methanol, stored at −20° C.).
The FDA-approved wireless electroceutical dressing (WED) Procellera (Ag—Zn dressing) (Vomaris Innovations Inc.) was the source of electric fields for treating C. albicans cells. This dressing has alternating circular regions of silver and zinc dots placed in proximity of 1 mm to each other generating electric fields in the range of 0.6-0.9 V (Banerjee et al., 2014; Banerjee et al., 2015). […] The effect of wound dressings on planktonic growth was assessed by culturing C. albicans in sterile 15 ml round bottom polypropylene tubes with 5 ml YPD broth in the presence of dressings. […] Post incubation for respective time intervals, 1 ml aliquots were taken from all groups and optical density (absorbance) was measured on a spectrophotometer at 600 nm.

[8] = system: ketoconazole-resistant Candida albicans ATCC 64124; assay: Metabolic state by FUN1 staining; details: in words
Method: as §1

SMILES: CC(=O)N1CCN(c2ccc(OCC3COC(Cn4ccnc4)(c4ccc(Cl)cc4Cl)O3)cc2)CC1 (centres unmarked) [ketoconazole]
- chitin content (Calcofluor white staining) [1]: increased chitin staining profile
- hyphal length measurements [2]: pseudohyphae formed
- change in cell wall thickness [3]: thick cell walls
- effect on cell membrane depolarization / damage [4]: did not have any acute or prolonged effect
- Nile red accumulation / efflux pump activity [5]: increased efflux pump activity
- yeast growth in agar lawn assay [6]: reduction in growth
- planktonic growth measured by absorbance at 600 nm [7]: almost equivalent
- FUN1 staining outcome (metabolic state, plasma membrane integrity) [8]: distinct intravacuolar structures
